In experiment [1] the target is Neuronal acetylcholine receptor; alpha4/beta2 (Rattus norvegicus) (UniProt P09483+P12390). Kind of experiment: Displacement of [3H]NIC from alpha-4-beta-2 nAChR in rat brain membrane at 100 uM. The experiment is classed as cell membranes. Background: Loss of bound radioactivity is the signal in a displacement assay; it reports binding, not function.
The nature of experiment [2]: Antagonist activity at nAChR in rat striatal slices assessed as inhibition of nicotine-evoked [3H]dopamine release at 100 uM. It is filed as functional. Particulars: for inhibition at 100 µM: Rattus norvegicus.
In experiment [3] the target is Neuronal acetylcholine receptor subunit alpha-7 (Rattus norvegicus) (UniProt Q05941). The experiment in a line: Displacement of [3H]MLA from alpha-7 nAChR in rat brain membrane at 100 uM. It is filed as cell membranes.
Neuronal acetylcholine receptor subunit alpha-7 (Rattus norvegicus), sequence (Q05941 whole entry): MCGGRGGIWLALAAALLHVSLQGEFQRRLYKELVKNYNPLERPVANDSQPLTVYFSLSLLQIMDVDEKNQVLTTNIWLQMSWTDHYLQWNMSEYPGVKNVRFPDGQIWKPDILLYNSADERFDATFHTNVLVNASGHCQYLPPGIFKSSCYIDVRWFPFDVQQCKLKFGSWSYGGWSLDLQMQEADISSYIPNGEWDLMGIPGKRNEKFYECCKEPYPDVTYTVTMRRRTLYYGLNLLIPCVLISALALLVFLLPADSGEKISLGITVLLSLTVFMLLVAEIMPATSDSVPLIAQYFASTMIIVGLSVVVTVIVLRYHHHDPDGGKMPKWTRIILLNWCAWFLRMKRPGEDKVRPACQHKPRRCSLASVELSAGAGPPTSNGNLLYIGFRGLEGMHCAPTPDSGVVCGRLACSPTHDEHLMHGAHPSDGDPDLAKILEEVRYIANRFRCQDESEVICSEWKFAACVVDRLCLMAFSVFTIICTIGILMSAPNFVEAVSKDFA
Experiment [4] in a line: Antagonist activity at nAChR in rat striatal slices assessed as inhibition of nicotine-evoked [3H]dopamine release. The experiment is classed as functional.

A word on the inhibition: it is the percentage by which the read-out fell short of the control. By IC50 is commonly meant the point on the concentration scale where inhibition reaches its midpoint. Turning to `Cc1ccc[n+](CCCCCc2cc(CCCCC[n+]3cccc(C)c3)cc(CCCCC[n+]3cccc(C)c3)c2)c1.[Br-].[Br-].[Br-]`, the inhibition in experiment [1] was 14%; in experiment [3], 1.2%. Besides, the Imax in experiment [2] is listed as 50%. Also, the inhibition at 100 µM in experiment [2] worked out at 58%. The IC50 in experiment [4] is 2 nM.
For the compound `CN1CCC[C@H]1c1ccc[n+](CCCCCc2cc(CCCCC[n+]3cccc([C@@H]4CCCN4C)c3)cc(CCCCC[n+]3cccc([C@@H]4CCCN4C)c3)c2)c1`, the inhibition in experiment [1] came out at 81%; in experiment [3], 7.9%. In addition, the inhibition at 100 µM in experiment [2] came out at 26%.
`CCCCc1ccc[n+](CCCCCc2cc(CCCCC[n+]3cccc(CCCC)c3)cc(CCCCC[n+]3cccc(CCCC)c3)c2)c1`: the inhibition in experiment [1] turned out to be 6.2%; in experiment [3] it was 4.4%. Besides, the inhibition at 100 µM in experiment [2] turned out to be 68%.
For the compound `CCCCCCCCCCCC[n+]1cccc(C)c1.[I-]`, in experiment [2], the Imax came to 62%. The IC50 in experiment [4] is 30 nM.
Turning to `Cc1cc(C)c[n+](CCCCCc2cc(CCCCC[n+]3cc(C)cc(C)c3)cc(CCCCC[n+]3cc(C)cc(C)c3)c2)c1`, the inhibition is 11% in experiment [1] and 6.5% in experiment [3]. Besides, in experiment [2], the inhibition at 100 µM was determined as 39%.
Turning to `Cc1ccc[n+](CCCC#Cc2cc(C#CCCC[n+]3cccc(C)c3)cc(C#CCCC[n+]3cccc(C)c3)c2)c1.[Br-].[Br-].[Br-]`, the results for the inhibition in experiment [1] and in experiment [3] were 10% and 0%, respectively. For the same compound, the Imax in experiment [2] was 67%. For the same compound, the inhibition at 100 µM in experiment [2] came out at 40%. In addition, in experiment [4], the IC50 is 0.2 nM.
As for `c1ccc2c(c1)ccc[n+]2CCCCCc1cc(CCCCC[n+]2cccc3ccccc32)cc(CCCCC[n+]2cccc3ccccc32)c1`, the inhibition in experiment [1] was found to be 5.7%; in experiment [3], 6.8%. In addition, the inhibition at 100 µM in experiment [2] was 8%.
For `Cc1cc[n+](CCCCCc2cc(CCCCC[n+]3ccc(C)c(C)c3)cc(CCCCC[n+]3ccc(C)c(C)c3)c2)cc1C`, in that order: 9.3%, 0.2% and 50%.
On to `CCCCc1ccc[n+](CCCC#Cc2cc(C#CCCC[n+]3cccc(CCCC)c3)cc(C#CCCC[n+]3cccc(CCCC)c3)c2)c1`, for which the inhibition was 6.8% in experiment [1] and 30% in experiment [3]. Moreover, the inhibition at 100 µM in experiment [2] is 28%.
`Cc1cc(C)c[n+](CCCC#Cc2cc(C#CCCC[n+]3cc(C)cc(C)c3)cc(C#CCCC[n+]3cc(C)cc(C)c3)c2)c1`: the inhibition was 8.9% in experiment [1] and 0% in experiment [3]. Also, the inhibition at 100 µM in experiment [2] worked out at 27%.
Regarding `Cc1cccc[n+]1CCCC#Cc1cc(C#CCCC[n+]2ccccc2C)cc(C#CCCC[n+]2ccccc2C)c1.[Br-].[Br-].[Br-]`, the inhibition in experiment [1] came to 4.5%. Also, in experiment [2], the Imax turned out to be 50% and the inhibition at 100 µM was found to be 51%. The same compound showed an inhibition in experiment [3] of 0%. In experiment [4], the IC50 amounted to 4 nM.
As to `Cc1ccc[n+](CCCCCCCCCCCC[n+]2cccc(C)c2)c1.[Br-].[Br-]`, the Imax in experiment [2] was found to be 68%. Further, in experiment [4], the IC50 was determined as 2 nM.
Turning to `CN1CCC[C@H]1c1ccc[n+](CCCC#Cc2cc(C#CCCC[n+]3cccc([C@@H]4CCCN4C)c3)cc(C#CCCC[n+]3cccc([C@@H]4CCCN4C)c3)c2)c1.[Br-].[Br-].[Br-]`, the inhibition in experiment [1] came out at 44%; in experiment [3], 4.2%. The Imax in experiment [2] stood at 50%. The inhibition at 100 µM in experiment [2] is 59%.
Regarding `c1ccc(-c2ccc[n+](CCCCCc3cc(CCCCC[n+]4cccc(-c5ccccc5)c4)cc(CCCCC[n+]4cccc(-c5ccccc5)c4)c3)c2)cc1`, the inhibition came to 14% in experiment [1] and 19% in experiment [3]. For the same compound, the inhibition at 100 µM in experiment [2] was 6%.
For `Cc1cc[n+](CCCCCc2cc(CCCCC[n+]3ccc(C)cc3)cc(CCCCC[n+]3ccc(C)cc3)c2)cc1`, in that order: 6%, 0% and 37%.
As for `Cc1cc[n+](CCCC#Cc2cc(C#CCCC[n+]3ccc(C)c(C)c3)cc(C#CCCC[n+]3ccc(C)c(C)c3)c2)cc1C`, the inhibition was found to be 4% in experiment [1] and 1.8% in experiment [3]. For the same compound, in experiment [2], the inhibition at 100 µM is 18%.
Turning to `c1ccc2c[n+](CCCCCc3cc(CCCCC[n+]4ccc5ccccc5c4)cc(CCCCC[n+]4ccc5ccccc5c4)c3)ccc2c1`, the inhibition is 8.4% in experiment [1] and 2.5% in experiment [3]. In addition, in experiment [2], the inhibition at 100 µM came out at 28%.
For `C(#Cc1cc(C#CCCC[n+]2cccc(-c3ccccc3)c2)cc(C#CCCC[n+]2cccc(-c3ccccc3)c2)c1)CCC[n+]1cccc(-c2ccccc2)c1`, in that order: 15%, 39% and 29%.
Take `Cc1cc[n+](CCCC#Cc2cc(C#CCCC[n+]3ccc(C)cc3)cc(C#CCCC[n+]3ccc(C)cc3)c2)cc1`: the inhibition in experiment [1] turned out to be 21%; in experiment [3], 0%. Further, the inhibition at 100 µM in experiment [2] worked out at 32%.
For `Cc1cccc[n+]1CCCCCc1cc(CCCCC[n+]2ccccc2C)cc(CCCCC[n+]2ccccc2C)c1`, the results for the inhibition in experiment [1] and in experiment [3] were 8.6% and 0%, respectively. Moreover, the inhibition at 100 µM in experiment [2] was found to be 27%.
Turning to `C(#Cc1cc(C#CCCC[n+]2cccc3ccccc32)cc(C#CCCC[n+]2cccc3ccccc32)c1)CCC[n+]1cccc2ccccc21`, the inhibition in experiment [1] is 7%; in experiment [3], 21%. Besides, in experiment [2], the inhibition at 100 µM came out at 29%.
With `C(#Cc1cc(C#CCCC[n+]2ccc3ccccc3c2)cc(C#CCCC[n+]2ccc3ccccc3c2)c1)CCC[n+]1ccc2ccccc2c1`, the inhibition in experiment [1] was 9.2%; in experiment [3], 4.5%. For the same compound, the inhibition at 100 µM in experiment [2] amounted to 44%.
